Series [1] concerns the target T1, monoamine oxidase B (MAO-B) (Rattus norvegicus, UniProt P19643).
T1 sequence (P19643 whole entry): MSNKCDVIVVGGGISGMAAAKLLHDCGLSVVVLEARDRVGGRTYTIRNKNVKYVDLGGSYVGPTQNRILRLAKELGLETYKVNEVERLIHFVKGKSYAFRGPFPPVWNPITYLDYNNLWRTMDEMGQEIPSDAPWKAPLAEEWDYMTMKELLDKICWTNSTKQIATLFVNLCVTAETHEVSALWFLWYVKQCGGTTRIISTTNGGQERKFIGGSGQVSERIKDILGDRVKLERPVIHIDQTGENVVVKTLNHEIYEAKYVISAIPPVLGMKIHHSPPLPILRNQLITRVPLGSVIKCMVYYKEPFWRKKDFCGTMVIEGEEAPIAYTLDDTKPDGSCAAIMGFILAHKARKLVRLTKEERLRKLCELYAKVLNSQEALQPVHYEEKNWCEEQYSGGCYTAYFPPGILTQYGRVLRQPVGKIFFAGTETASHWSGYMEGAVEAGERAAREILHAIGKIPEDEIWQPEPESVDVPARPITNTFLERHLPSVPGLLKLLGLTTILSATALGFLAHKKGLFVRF
The series is described as follows: Inhibition of monoamine oxidase B in rat brain at 10 uM. Type of series: tissue-based.

For series [2], the target named is T2, Atrial natriuretic peptide receptor 1 (Homo sapiens) (UniProt P16066).
T2 sequence (whole entry): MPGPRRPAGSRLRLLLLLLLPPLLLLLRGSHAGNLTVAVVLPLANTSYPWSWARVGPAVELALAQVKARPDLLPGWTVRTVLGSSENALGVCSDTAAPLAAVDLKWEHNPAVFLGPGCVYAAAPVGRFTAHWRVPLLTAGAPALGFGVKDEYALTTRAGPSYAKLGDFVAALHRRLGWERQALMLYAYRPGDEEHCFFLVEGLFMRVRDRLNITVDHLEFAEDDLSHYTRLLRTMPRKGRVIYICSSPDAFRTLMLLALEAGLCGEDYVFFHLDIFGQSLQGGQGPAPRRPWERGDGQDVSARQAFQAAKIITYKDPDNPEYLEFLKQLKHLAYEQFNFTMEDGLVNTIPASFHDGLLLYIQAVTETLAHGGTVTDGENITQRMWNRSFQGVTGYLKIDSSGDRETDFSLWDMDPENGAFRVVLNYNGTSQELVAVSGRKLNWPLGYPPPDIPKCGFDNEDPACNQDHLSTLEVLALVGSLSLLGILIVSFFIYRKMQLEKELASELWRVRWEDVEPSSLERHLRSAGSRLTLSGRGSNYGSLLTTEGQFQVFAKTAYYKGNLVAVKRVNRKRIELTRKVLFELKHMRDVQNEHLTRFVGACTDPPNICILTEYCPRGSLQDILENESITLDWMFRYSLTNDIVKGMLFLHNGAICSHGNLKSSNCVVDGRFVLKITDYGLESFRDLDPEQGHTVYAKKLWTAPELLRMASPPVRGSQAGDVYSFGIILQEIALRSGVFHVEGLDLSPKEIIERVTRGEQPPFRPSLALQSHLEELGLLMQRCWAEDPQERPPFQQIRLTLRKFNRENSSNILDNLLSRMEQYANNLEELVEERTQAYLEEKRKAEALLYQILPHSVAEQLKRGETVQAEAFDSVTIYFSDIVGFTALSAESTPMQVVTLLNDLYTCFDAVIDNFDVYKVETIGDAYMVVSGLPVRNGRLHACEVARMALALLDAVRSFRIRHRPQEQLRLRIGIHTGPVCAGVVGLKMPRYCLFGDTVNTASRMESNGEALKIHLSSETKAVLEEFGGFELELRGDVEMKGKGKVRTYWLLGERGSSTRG
Put plainly: Inhibition of ANP A at 1 nM.

For series [3], the target named is T3, Alpha-2A adrenergic receptor (Homo sapiens, UniProt P08913).
T3 sequence (P08913 whole entry): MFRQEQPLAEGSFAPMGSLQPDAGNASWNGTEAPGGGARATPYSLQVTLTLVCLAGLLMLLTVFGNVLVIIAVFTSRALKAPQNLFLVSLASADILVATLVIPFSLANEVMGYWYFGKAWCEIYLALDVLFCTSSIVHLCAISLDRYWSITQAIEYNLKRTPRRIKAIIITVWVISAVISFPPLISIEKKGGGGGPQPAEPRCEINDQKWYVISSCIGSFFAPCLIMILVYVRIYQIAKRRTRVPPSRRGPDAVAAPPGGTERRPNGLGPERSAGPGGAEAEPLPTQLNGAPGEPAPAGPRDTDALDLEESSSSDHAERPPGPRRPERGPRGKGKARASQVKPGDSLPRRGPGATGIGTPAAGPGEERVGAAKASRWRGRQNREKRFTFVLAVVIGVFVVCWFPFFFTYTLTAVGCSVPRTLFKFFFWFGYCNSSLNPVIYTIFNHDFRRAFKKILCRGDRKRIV
Put plainly: Activity at adrenergic alpha-2A receptor expressed in human clonic adenocarcinoma HT29 cell by adenylyl cyclase assay. Type of series: functional, cell-based, HT-29.

Series [4] addresses Protein kinase C, PKC; classical/novel (Homo sapiens) (UniProt O94806+P17252+P05129+Q05655+P05771+Q02156+P24723+Q15139+Q04759). Put plainly: Inhibition of PDBu activated protein kinase C at 10 uM. It counts as protein assay.
Series [5] deals with Sodium-dependent noradrenaline transporter (Homo sapiens, UniProt P23975). Put plainly: Inhibition of NET at 100 nM.
Series [6] concerns the target T4, B2 bradykinin receptor (Homo sapiens) (UniProt P30411).
T4 sequence (whole entry): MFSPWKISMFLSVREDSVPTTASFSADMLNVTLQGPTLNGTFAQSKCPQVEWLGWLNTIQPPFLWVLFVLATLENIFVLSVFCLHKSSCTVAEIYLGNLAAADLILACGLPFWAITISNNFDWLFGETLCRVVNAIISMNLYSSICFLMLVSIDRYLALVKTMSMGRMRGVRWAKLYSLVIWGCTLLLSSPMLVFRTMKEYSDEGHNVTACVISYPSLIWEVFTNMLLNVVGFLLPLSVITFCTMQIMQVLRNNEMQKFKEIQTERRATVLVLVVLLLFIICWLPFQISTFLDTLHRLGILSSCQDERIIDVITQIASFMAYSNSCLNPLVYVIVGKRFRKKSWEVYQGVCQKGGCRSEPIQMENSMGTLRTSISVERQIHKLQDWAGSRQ
The series is described as follows: Inhibition of bradykinin 2 receptor at 10 uM.

By inhibition is commonly meant the relative decrease from the control value, in per cent. For orientation: EC50 means the midpoint of the concentration-response curve. The low end stands for a more potent agent, the high end for a less potent agent.

Sequence of Sodium-dependent noradrenaline transporter (P23975 whole entry): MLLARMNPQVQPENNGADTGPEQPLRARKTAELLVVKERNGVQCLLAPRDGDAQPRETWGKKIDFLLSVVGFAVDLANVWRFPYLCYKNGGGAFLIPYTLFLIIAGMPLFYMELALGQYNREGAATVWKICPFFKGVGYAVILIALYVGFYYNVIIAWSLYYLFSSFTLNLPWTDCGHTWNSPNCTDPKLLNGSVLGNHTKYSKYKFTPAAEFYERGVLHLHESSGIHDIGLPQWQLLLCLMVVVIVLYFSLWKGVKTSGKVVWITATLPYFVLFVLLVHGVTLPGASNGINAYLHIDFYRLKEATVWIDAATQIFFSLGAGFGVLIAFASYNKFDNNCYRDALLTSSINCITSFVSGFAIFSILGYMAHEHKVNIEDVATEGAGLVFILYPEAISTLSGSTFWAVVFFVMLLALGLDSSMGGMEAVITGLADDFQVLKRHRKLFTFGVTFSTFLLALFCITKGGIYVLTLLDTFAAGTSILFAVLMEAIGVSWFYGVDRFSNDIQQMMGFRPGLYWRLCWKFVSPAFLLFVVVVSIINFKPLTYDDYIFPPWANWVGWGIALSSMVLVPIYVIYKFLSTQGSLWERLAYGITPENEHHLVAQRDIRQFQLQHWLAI

Regarding `C[C@H](N)Cn1ncc2ccc(O)cc21`, in series [1], the inhibition at 10 µM was -18.4%. Further, the inhibition was -5.65% in series [2], 22.8% in series [4], 3.93% in series [5] and 0.11% in series [6]. Moreover, in series [3], the EC50 is > 10 µM.

The record behind these values is ChEMBL document CHEMBL1148572, “1-((S)-2-aminopropyl)-1H-indazol-6-ol: a potent peripherally acting 5-HT2 receptor agonist with ocular hypotensive activity” (J Med Chem, 2006).
